Measurements published in ChEMBL document CHEMBL1158755, “Bromophenols coupled with derivatives of amino acids and nucleosides from the red alga Rhodomela confervoides” (J Nat Prod, 2005).

Tests used:
A549 = assay: Cytotoxicity against human A549 cells by MTT assay; format: functional, cell-based
Candida albicans = assay: Antifungal activity against Candida albicans after 24 hrs; format: functional
HCT-8 = assay: Cytotoxicity against human HCT8 cells by MTT assay; format: functional, cell-based
MCF7 = assay: Cytotoxicity against human MCF7 cells by MTT assay; format: functional, cell-based
Bel-7402 = assay: Cytotoxicity against human Bel7402 cells by MTT assay; format: functional, cell-based
Escherichia coli = assay: Antibacterial activity against Escherichia coli; format: functional
BGC-823 = assay: Cytotoxicity against human BGC823 cells by MTT assay; format: functional, cell-based
Staphylococcus aureus = assay: Antibacterial activity against Staphylococcus aureus; format: functional

COC(=O)C1CCC(=O)N1Cc1cc(O)c(O)c(Br)c1Cc1cc(O)c(O)c(Br)c1Br (configuration not stated)
IC50 (A549): > 10 µg/mL
MIC50 (Candida albicans): > 100 µg/mL
IC50 (HCT-8): > 10 µg/mL
IC50 (MCF7): > 10 µg/mL
IC50 (Bel-7402): > 10 µg/mL
MIC50 (Escherichia coli): > 100 µg/mL
IC50 (BGC-823): > 10 µg/mL
MIC50 (Staphylococcus aureus): > 100 µg/mL

COC(=O)C1CCC(=O)N1Cc1cc(O)c(O)c(Br)c1Br (configuration not stated)
IC50 (A549): > 10 µg/mL
MIC50 (Candida albicans): > 100 µg/mL
IC50 (HCT-8): > 10 µg/mL
IC50 (MCF7): > 10 µg/mL
IC50 (Bel-7402): > 10 µg/mL
MIC50 (Escherichia coli): > 100 µg/mL
IC50 (BGC-823): > 10 µg/mL
MIC50 (Staphylococcus aureus): > 100 µg/mL

OC[C@H]1O[C@@H](n2cnc3cnc(NCc4cc(O)c(O)c(Br)c4Br)nc32)[C@H](O)[C@@H]1O
IC50 (A549): > 10 µg/mL
MIC50 (Candida albicans): > 100 µg/mL
IC50 (HCT-8): > 10 µg/mL
IC50 (MCF7): > 10 µg/mL
IC50 (Bel-7402): > 10 µg/mL
MIC50 (Escherichia coli): > 100 µg/mL
IC50 (BGC-823): > 10 µg/mL
MIC50 (Staphylococcus aureus): > 100 µg/mL

O=C(O)C1CCC(=O)N1Cc1cc(O)c(O)c(Br)c1Br (configuration not stated)
IC50 (A549): > 10 µg/mL
MIC50 (Candida albicans): > 100 µg/mL
IC50 (HCT-8): > 10 µg/mL
IC50 (MCF7): > 10 µg/mL
IC50 (Bel-7402): > 10 µg/mL
MIC50 (Escherichia coli): > 100 µg/mL
IC50 (BGC-823): > 10 µg/mL
MIC50 (Staphylococcus aureus): > 100 µg/mL
